According to US20130071330A1, “METHODS OF IDENTIFYING AGENTS EFFECTIVE TO TREAT COGNITIVE DECLINE AND DISEASES ASSOCIATED THEREWITH” (priority 2010, published 2013):
“Also recorded” adds a separate entry of the source.

Experiments:
[1] = tested on: Abeta assemblies isolated from patients, membrane trafficking; experiment: Membrane trafficking assay with Abeta assemblies isolated from AD or normal patients; format: cell-based, rat; settings: FIG. 4
Experimental: (§1) MTT assay Primary neurons from E18 Sprague-Dawley rat embryos were plated at optimized concentrations in 384 well plates in NB media (Invitrogen). Neurons were maintained in cultures for 3 weeks, with twice weekly feeding of NB media with N2 supplement (Invitrogen). Vehicle or Abeta oligomer preparations (1.5 uM), followed by compounds were added to cells and incubated for 1 to 24 hr at 37° C. in 5% CO2. MTT reagent (3-(4,5-dimethylthizaol-2-yl)-2,5diphenyl tetrazolium bromide) reagent (Roche Molecular Biochemicals) was reconstituted in phosphate buffered saline to 5 mg/ml. 10 ul of MTT labeling reagent was added to each well and incubated at 37° C. for 1 h, then imaged.
Abeta assemblies were isolated from patients with Alzheimer's Disease (AD) or from normal patients. The Abeta assemblies were tested for their ability to modulate membrane trafficking. […] The assay was performed as described herein.

[2] = tested on: Abeta oligomer effects on membrane trafficking; experiment: MTT membrane trafficking (formazan exocytosis) assay with Abeta oligomers in mature primary neurons; format: cell-based, rat; settings: for block of Abeta oligomer-caused decrease of intracellular formazan-filled vesicles (puncta): neurons 3 weeks in vitro, for antibody stoichiometric amount (3 μM Aβ, 1.5 μM IgG), added prior to oligomers
Experimental: as §1
Each assay plate was formatted so that compounds were tested with and without Abeta on each plate.
Experimental controls: Abeta 1-42 oligomers were made and used as positive controls. The oligomers can be made by any method, such as published methods (Dhalgren et al., '02, LeVine '04, Shrestha et al., '06, Puzzo et al., '05, Barghorn et al., '05, Johansson et al., '06). […] Negative controls included vehicle-treated neurons as well as neurons treated with Compound Z. These controls, on each plate, serve as normalization tools to calibrate assay performance on a plate-by-plate basis.
Statistical software and Analysis: Data handling and analysis was accomplished by Cellomics VTI image analysis software and STORE automated database software. Statistical comparisons were made via pairwise Tukey-Kramer analysis to determine the significance of the separation between compound+Abeta oligomers from Abeta alone, and between compound alone from vehicle. […] Power analysis was set for a number of replicate screening wells that will minimize false negatives such as N=4. Rank ordering of compounds was done on the basis of secondary assay mechanism of action and physicochemical properties of the hit structures.
Abeta 1-42 oligomers made according to published methods (Dhalgren et al., '02, LeVine '04, Shrestha et al., '06, Puzzo et al., '05, Barghorn et al., '05, Johansson et al., '06) or isolated from human brain tissue (Walsh et al., '02, Lesne et al., '06, Shankar et al '08) served as positive controls. Toxicity was monitored in each image-based assay via quantification of nuclear morphology visualized with the DNA binding dye DAPI (Invitrogen). Nuclei that were fragmented were considered to be in late stage apoptosis (Majno and Joris '95). Peptide lots producing unusual peptide size ranges or significant toxicity at standard concentrations on neurons were rejected.
Image Processing: Images are captured and analyzed with the Cellomics VTI automated microscope platform. For statistical analysis, a Tukey-Kramer pair-wise comparison with unequal variance is used.
Primary rat neurons grown for at least 3 weeks in vitro were chosen as the basis for this screening assay. […] More complex systems such as acute or organotypic brain slices are very useful but not amenable to high throughput screening. […] For this reason, primary neuronal cultures were chosen because of their ability to be used in high throughput screens and fidelity to what occurs in vivo.
The exocytosis assay was adapted for use with mature primary neuronal cultures grown for 3 weeks in vitro.

[3] = tested on: mice; experiment: Fear conditioning assay (Abeta oligomer-induced memory deficit); format: in vivo
Excerpt: The formation of contextual memories is dependent upon the integrity of medial temporal lobe structures such as the hippocampus. […] Animals that show good learning will express an increase in freezing behavior when placed back into the same context. This freezing is absent in a novel context.

COc1cc(CCC(C)NCc2ccc(C(F)(F)F)cc2)ccc1O (centres unmarked) [Compound Z]
effect on Abeta assemblies isolated from age-matched normal individuals ([1]; Abeta assemblies from age-matched normal individuals): no effect | block of trafficking effects of AD-brain derived Abeta assemblies ([1]; IMW (10-100 KDa) Abeta assemblies isolated from AD patients): significantly blocked | EC50 ([2]; Neuron, read-out: inhibits oligomer effects on membrane trafficking, EC50, primary rat neurons, Abeta oligomers, FIG. 2B): 7 µM | block of Abeta oligomer-caused decrease of intracellular formazan-filled vesicles (puncta) [2]: inhibits oligomer effects on membrane trafficking; also recorded: effective at stopping Abeta oligomer mediated effects on membrane trafficking | block of oligomer-mediated memory deficits (contextual fear conditioning) ([3]; 2 pmol dose, given prior to Abeta (200 nM), tested about 24 hours after training, p<0.05): completely blocked | block of oligomer effects on memory, dose dependence ([3]; administered prior to Abeta oligomer administration): blocked oligomer effects on memory in a dose-dependent manner | adverse behavioral changes ([3]; any dose): No adverse behavioral changes were observed | effect of compound alone on memory ([3]; without Abeta, data not shown): No effect

O[C@H]1[C@H](O)[C@@H](O)[C@H](O)[C@@H](O)[C@@H]1O [scyllo-inositol, reference compound]
block of Abeta oligomer-caused decrease of intracellular formazan-filled vesicles (puncta) [2]: none were active

C[C@]12N[C@H](Cc3ccccc31)c1ccccc12 [MK-801, reference compound]
block of Abeta oligomer-caused decrease of intracellular formazan-filled vesicles (puncta) [2]: none were active

C[N+](C)(C)CCCCCC[N+](C)(C)C [hexamethonium bromide, reference compound]
block of Abeta oligomer-caused decrease of intracellular formazan-filled vesicles (puncta) [2]: none were active
